According to patent US20060159762A1, “Stable pharmaceutical composition comprising an active substance in the form of solid solution” (priority 2004, published 2006):

Test: Comparative storage stability: total degradation products and related substances by HPLC
Assay type: physicochemical
Details: for increase of degradation products and related substances relative to the starting analysis, non-formulated active substance versus stable pharmaceutical composition (solid solution): 6 days storage on 60° C.
Experimental: (§1) Comparison of the total amount of degradation products and related substances in non-formulated active substance and in the stable pharmaceutical composition according to the present invention comprising the active substance in the form of solid solution is presented by the graph 1. The pharmaceutical composition is prepared as described in example 2. The amount of degradation products and related substances is determined by HPLC method. [drawing]
as §1, with “in” for “by the”, “2.” for “1.”, “5.” for “2.”, “[drawing] [drawing]” for “[drawing]”

With `COc1ccc2[n-]c([S+]([O-])Cc3ncc(C)c(OC)c3C)nc2c1.COc1ccc2[n-]c([S+]([O-])Cc3ncc(C)c(OC)c3C)nc2c1.[Mg+2]` (stereo not drawn) [esomeprazole magnesium, Esomeprazole magnesium] the “increase of degradation products and related substances relative to the starting analysis, non-formulated active substance versus stable pharmaceutical composition (solid solution)” value (composition prepared as described in example 2) was “four times higher”, the “increase of degradation products and related substances relative to the starting analysis, non-formulated active substance versus stable pharmaceutical composition (solid solution)” value (composition prepared as described in example 5) was > 10 times and the “increase of the amount of degradation products and related substances relative to the starting analysis, non-formulated active substance versus stable pharmaceutical composition (solid solution)” value (14 days storage on 40° C., composition prepared as described in example 2) was “three times higher”.
